In article PMC10218498, “Exploring BenzylethoxyAryl Urea Scaffolds for Multitarget Immunomodulation Therapies” (International Journal of Molecular Sciences, 2023):
Like-named read-outs stand apart in the source and are kept apart here.

What was measured:
Jurkat T cells = test: MTT cell proliferation assay, Jurkat T cells; assay type: cell-based; details: Homo sapiens, 48 h of treatment
Protocol: This assay allowed us to establish the corresponding IC50 values (expressed as the concentration, in μM, at which 50% of cell viability is achieved), shown in Table 1.
In 96-well plates, 5 × 10^3 (HT-29, MCF-7, A549, HMEC-1, Jurkat, and HEK-293) cells per well were incubated with serial dilutions of the tested compounds in a total volume of 100 μL of their respective growth media. The 3-(4,5-dimethylthiazol-2-yl)-2,5-diphenyltetrazolium bromide (MTT; Sigma Chemical Co.) dye reduction assay in 96-well microplates was used. After 2 days of incubation (37 °C, 5% CO2 in a humid atmosphere), 10 μL of MTT (5 mg/mL in phosphate-buffered saline, PBS) was added to each well, and the plate was incubated for a further 3 h (37 °C). After that, the supernatant was discarded and replaced by 100 µL of DMSO to dissolve formazan crystals. The absorbance was then read at 550 nm by spectrophotometry. For all concentrations of compound, cell viability was expressed as the percentage of the ratio between the mean absorbance of treated cells and the mean absorbance of untreated cells. Three independent experiments were performed, and the IC50 values (i.e., concentration half inhibiting cell proliferation) were graphically determined using GraphPad Prism 4 software.

PD-L1 = PD-L1 (Homo sapiens, UniProt Q9NZQ7); test: PD-L1 relative quantification by flow cytometry in HT-29; assay type: cell-based; parameters: endogenous in cells; host or cells: HT-29; details: 24 h; for Total PD-L1 (%): relative to DMSO control = 100; for inhibition at 20 µM: read-out: inhibition rate of PD-L1
Sequence of PD-L1 (Q9NZQ7 19-290): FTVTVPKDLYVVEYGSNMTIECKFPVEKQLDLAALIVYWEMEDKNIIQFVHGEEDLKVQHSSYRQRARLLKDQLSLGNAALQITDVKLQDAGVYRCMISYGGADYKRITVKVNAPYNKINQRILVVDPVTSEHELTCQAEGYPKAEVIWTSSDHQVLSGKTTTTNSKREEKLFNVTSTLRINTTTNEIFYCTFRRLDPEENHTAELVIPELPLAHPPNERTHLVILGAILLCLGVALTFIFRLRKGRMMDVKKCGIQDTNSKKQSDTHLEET
Protocol: To assess the effect of the selected compounds on the biological targets PD-L1 and VEFGR-2, we performed the study on both cancer cell lines HT-29 and A-549 and by flow cytometry technique. […] For these assays, cells were incubated for 24 h in the presence of the corresponding compounds at 20 µM concentration.
To study the effect of the compounds on every biological target in cancer cell lines, the compounds were used at 20 µM dose.
For the assay, 10^5 cells per well were incubated for 24 h with the corresponding dose of the tested compound in a total volume of 500 μL of their growth media.
On the one hand, to detect total PD-L1 and VEGFR-2, after the cell treatments, they were collected and fixed with 4% in PBS paraformaldehyde. After fixation, a treatment with 0.5% in PBS TritonTM X-100 was performed, and finally, cells were stained with FITC Mouse monoclonal Anti-Human VEGFR-2 (ab184903) and Alexa Fluor® 647 Rabbit monoclonal Anti-PD-L1 (ab215251).
On the other hand, to detect membrane PD-L1 and VEGFR-2, the process was the same, avoiding the treatment with 0.5% in PBS TritonTM X-100 step.

LAT = test: Immunoblotting of OT-1 CTL signaling proteins: LAT; assay type: cell-based, mice; details: OT-1, 20 μM, 24 h
Source text: We next studied the effect of our compounds on the signaling cascade downstream of the TCR. […] However, both the expression and phosphorylation of LCK were increased in response to all compounds. The effects on ZAP70 and LAT were more complex, with opposing effects on total protein expression versus phosphorylation. Thus, all compounds modulated signaling downstream of the TCR in a manner that is likely to impact T-cell activation and activity.
CD8+ cells were obtained from the inguinal, axillary, brachial, and mesenteric lymph nodes previously collected from OT-1 mice. Lymph node cells were isolated by mashing through a […] cell strainer. Cells were resuspended in IMDM cell media at a concentration of 0.3 million cells/mL. N4 ovalbumin peptide was added at a concentration of 10 nM, and cells were incubated for 48 h at 5% CO2, 37 °C. On day 2 from recollection, cells were pelleted at 1300 rpm for 5 min and washed with PBS to remove N4 peptide. The cell pellet was resuspended in fresh IMDM media in a new flask in a 0.3 million cells/mL and supplemented with IL-2 at 20 ng/mL. After incubation for a further 48 h (day 4), cells were re-seeded in fresh IMDM media at a concentration of 0.3 million cells/mL supplemented with IL-2 at 20 ng/mL. Cells were cultured for a further 48 h prior to use on day 6 in functional assays.
To study the effect of the compounds in the signaling pathway of CTLs, the compound was incubated for 24 h at 20 μM. After this time, cells were collected and washed twice in PBS and lysed in radioimmunoprecipitation assay (RIPA) lysis buffer (50 mM tris-HCl at pH 7.4, 150 mM sodium chloride, 5 mM EGTA, 0.1% SDS, 1% NP-40, and 1% deoxycholate) supplemented with a protease and phosphatase inhibitor cocktail (mini complete ULTRA Protease tablet and phosSTOP tablet from Roche, Basel, Switzerland). Lysates were clarified by high-speed centrifugation (17,000 rpm for 15 min at 4 °C). Protein concentration was measured using a Micro BCA Protein Assay (Thermo Scientific, Waltham, MA, USA), and 10 μg to 30 μg of total protein were supplemented with 2X SDS sample buffer [tris (pH 6.8), 20% glycerol, 5% SDS, b-mercaptoethanol, and bromophenol blue) and boiled at 95 °C for 5 min. […] Bound Ab was detected by incubation with anti-rabbit and anti-mouse horseradish peroxidase secondary Ab (Cell Signaling Technology) and visualized using the Bio-Rad ChemiDoc MP Imaging System.

[1] = system: HMEC-1 microtube formation; test: Tube formation inhibition assay on Matrigel; assay type: cell-based, human; details: HMEC-1 on Matrigel, 24 h
Protocol: The capacity to inhibit the formation of a new vasculature network formed by HMEC-1 was evaluated on compounds 8 and 14 at different concentrations.
Wells of an IBIDI μ-slide angiogenesis (IBIDI, Martinsried, Germany) were coated with 15 μL of Matrigel® (10 mg/mL, BD Biosciences) at 4 °C. After gelatinization at 37 °C for 30 min, HMEC-1 cells were seeded at 2 × 10^4 cells/well in 25 μL of culture medium on top of the Matrigel and were incubated 30 min at 37 °C while are attached. Then, compounds were added and dissolved in 25 μL of culture medium, and after 24 h of incubation at 37 °C, tube formation was evaluated.

SMILES | IC50 (Jurkat T cells) [µM] | Total PD-L1 (%) (PD-L1; HT-29, 20 µM) | inhibition at 20 µM (PD-L1; HT-29, HT-29, 20 µM) [%] | melting point [°C] | inhibition rate of PD-L1 (PD-L1; HT-29, 20 µM) | LAT protein expression (Western blot quantification) (LAT) | pLAT protein expression (Western blot quantification) (LAT) | Minimum Active Conc. (inhibition of microtube formation) [1] [µM] | inhibition at 20 µM (PD-L1; HT-29, 20 µM) [%]
Cc1c(COc2ccc(CN3CCCCC3C(=O)O)cc2Br)cccc1-c1ccccc1 (stereo not drawn) [BMS-8, reference compound] | > 100 | 82 ± 21 | – | – | – | – | – | – | –
COc1ccc(COc2cccc(NC(=O)Oc3ccccc3)c2)cc1 [Compound 14] | > 100 | 68 ± 5 | – | – | – | 103 | 21 | 20 | ~40

Continued, in another order:

IC50 (Jurkat T cells) [µM] | Total PD-L1 (%) (PD-L1; HT-29, 20 µM) | inhibition at 20 µM (PD-L1; HT-29, HT-29, 20 µM) [%] | melting point [°C] | inhibition rate of PD-L1 (PD-L1; HT-29, 20 µM) | SMILES | LAT protein expression (Western blot quantification) (LAT) | pLAT protein expression (Western blot quantification) (LAT) | Minimum Active Conc. (inhibition of microtube formation) [1] [µM] | inhibition at 20 µM (PD-L1; HT-29, 20 µM) [%]
> 100 | 71 ± 15 | ~50 | 201 to 205 | – | COc1ccc(COc2cccc(NC(=O)Nc3ccc(F)cc3)c2)cc1 [Compound 2] | 63 | – | – | –
> 100 | 40 ± 2 | ~60 | – | – | COc1ccc(COc2cccc(NC(=O)Nc3ccc(Br)cc3)c2)cc1 [Compound 8] | 88 | 8 | 20 | –
> 100 | 118 ± 3 | – | – | no inhibitory effect | COc1ccc(COc2cccc(NC(=O)Nc3ccc(OC)cc3)c2)cc1 [Compound 11] | 85 | 10 | – | –
